# Patent US12721856B2, “Psilocybin compositions, methods of making and methods of using the same” (priority 2021, dated 2026)
# Assay: Solubility in water
# Format: physicochemical
# Source text: The psilocybin in the form Polymorph A or A′ has the general properties illustrated in Table 5 below: […]
structure (smiles),measurement,value
CN(C)CCc1c[nH]c2cccc(OP(=O)(O)O)c12 [Psilocybin],solubility,~15 mg/mL
